Measurements from the NIST ThermoML archive (doi:10.1021/je900131q).
Where “and” joins values, the source holds several entries; their conditions need not be identical. Equal entries are not always repeated. ± gives the expanded uncertainty stated by the source.

Conditions: Fluid (supercritical or subcritical phases); for mass density: Buoyancy - hydrostatic balance with magnetic suspension - one sinker; for viscosity: Vibrating wire viscometer

## [He] [helium]
293.13 K, 27527 kPa
  mass density: 39.805 ± 0.088 kg/m3
  viscosity: 0.01975 ± 0.00012 mPa·s
293.14 K, 2446 kPa
  mass density: 3.967 ± 0.0092 kg/m3
  viscosity: 0.01958 ± 0.00012 mPa·s
293.14 K, 16374 kPa
  mass density: 24.912 ± 0.055 kg/m3
  viscosity: 0.01958 ± 0.00012 mPa·s
293.14 K, 20744 kPa
  mass density: 30.969 ± 0.068 kg/m3
  viscosity: 0.01962 ± 0.00012 mPa·s
293.14 K, 27529 kPa
  mass density: 39.804 ± 0.087 kg/m3
  viscosity: 0.01975 ± 0.00012 mPa·s
293.15 K, 122.25 kPa
  mass density: 0.19885 ± 0.0024 kg/m3
  viscosity: 0.01954 ± 0.00012 mPa·s
293.15 K, 245.73 kPa
  mass density: 0.40368 ± 0.0024 kg/m3
  viscosity: 0.01958 ± 0.00012 mPa·s
293.15 K, 366.51 kPa
  mass density: 0.59858 ± 0.0026 kg/m3
  viscosity: 0.01959 ± 0.00012 mPa·s
293.15 K, 366.53 kPa
  mass density: 0.60087 ± 0.0026 kg/m3
  viscosity: 0.01959 ± 0.00012 mPa·s
293.15 K, 482.99 kPa
  mass density: 0.79042 ± 0.0028 kg/m3
  viscosity: 0.01959 ± 0.00012 mPa·s
293.15 K, 483 kPa
  mass density: 0.79119 ± 0.0028 kg/m3
  viscosity: 0.01959 ± 0.00012 mPa·s
293.15 K, 1219.9 kPa
  mass density: 1.9866 ± 0.005 kg/m3
  viscosity: 0.01959 ± 0.00012 mPa·s
293.15 K, 1827.5 kPa
  mass density: 2.9695 ± 0.0071 kg/m3
  viscosity: 0.01958 ± 0.00012 mPa·s
293.15 K, 1827.6 kPa
  mass density: 2.9711 ± 0.0071 kg/m3
  viscosity: 0.01958 ± 0.00012 mPa·s
293.15 K, 2466.2 kPa
  mass density: 3.9699 ± 0.0083 kg/m3
  viscosity: 0.01958 ± 0.00012 mPa·s
293.15 K, 3714.2 kPa
  mass density: 5.9819 ± 0.014 kg/m3
  viscosity: 0.01957 ± 0.00012 mPa·s
293.15 K, 3714.3 kPa
  mass density: 5.9857 ± 0.014 kg/m3
  viscosity: 0.01956 ± 0.00012 mPa·s
293.15 K, 4978.6 kPa
  mass density: 7.974 ± 0.018 kg/m3
  viscosity: 0.01956 ± 0.00012 mPa·s
293.15 K, 4978.7 kPa
  mass density: 7.9747 ± 0.018 kg/m3
  viscosity: 0.01956 ± 0.00012 mPa·s
293.15 K, 4995.9 kPa
  mass density: 7.9672 ± 0.018 kg/m3
  viscosity: 0.01957 ± 0.00012 mPa·s
293.15 K, 7564.1 kPa
  mass density: 11.972 ± 0.027 kg/m3
  viscosity: 0.01955 ± 0.00012 mPa·s
293.15 K, 7564.2 kPa
  mass density: 11.972 ± 0.027 kg/m3
  viscosity: 0.01955 ± 0.00012 mPa·s
293.15 K, 8842.9 kPa
  mass density: 13.917 ± 0.031 kg/m3 and 13.915 ± 0.031 kg/m3
  viscosity: 0.01955 ± 0.00012 mPa·s
293.15 K, 10227 kPa
  mass density: 15.922 ± 0.036 kg/m3
  viscosity: 0.01957 ± 0.00012 mPa·s
293.15 K, 12231 kPa
  mass density: 18.954 ± 0.042 kg/m3
  viscosity: 0.01956 ± 0.00012 mPa·s
293.15 K, 14295 kPa
  mass density: 21.949 ± 0.048 kg/m3
  viscosity: 0.01957 ± 0.00012 mPa·s
293.15 K, 14296 kPa
  mass density: 21.953 ± 0.048 kg/m3
  viscosity: 0.01957 ± 0.00012 mPa·s
293.15 K, 14320 kPa
  mass density: 21.908 ± 0.049 kg/m3
  viscosity: 0.01959 ± 0.00012 mPa·s
293.15 K, 16374 kPa
  mass density: 24.913 ± 0.055 kg/m3
  viscosity: 0.01958 ± 0.00012 mPa·s
293.15 K, 18460 kPa
  mass density: 27.833 ± 0.061 kg/m3 and 27.831 ± 0.061 kg/m3
  viscosity: 0.0196 ± 0.00012 mPa·s
293.15 K, 20744 kPa
  mass density: 30.973 ± 0.068 kg/m3
  viscosity: 0.01963 ± 0.00012 mPa·s
293.15 K, 22880 kPa
  mass density: 33.856 ± 0.075 kg/m3
  viscosity: 0.01966 ± 0.00012 mPa·s
293.15 K, 22883 kPa
  mass density: 33.861 ± 0.074 kg/m3
  viscosity: 0.01966 ± 0.00012 mPa·s
293.15 K, 22973 kPa
  mass density: 33.811 ± 0.074 kg/m3
  viscosity: 0.01968 ± 0.00012 mPa·s
293.15 K, 25224 kPa
  mass density: 36.797 ± 0.081 kg/m3
  viscosity: 0.01972 ± 0.00012 mPa·s
293.15 K, 25329 kPa
  mass density: 37.097 ± 0.082 kg/m3 and 37.099 ± 0.082 kg/m3
  viscosity: 0.01969 ± 0.00012 mPa·s
293.16 K, 245.73 kPa
  mass density: 0.40445 ± 0.0024 kg/m3
  viscosity: 0.01958 ± 0.00012 mPa·s
293.16 K, 613.17 kPa
  mass density: 1.0037 ± 0.003 kg/m3
  viscosity: 0.01959 ± 0.00012 mPa·s
293.16 K, 613.18 kPa
  mass density: 1.0029 ± 0.003 kg/m3
  viscosity: 0.01959 ± 0.00012 mPa·s
293.16 K, 2447.5 kPa
  mass density: 3.9693 ± 0.0092 kg/m3 and 3.9647 ± 0.0092 kg/m3
  viscosity: 0.01958 ± 0.00012 mPa·s
293.16 K, 3742.3 kPa
  mass density: 5.9974 ± 0.014 kg/m3
  viscosity: 0.01958 ± 0.00012 mPa·s
293.16 K, 4996.2 kPa
  mass density: 7.965 ± 0.018 kg/m3
  viscosity: 0.01957 ± 0.00012 mPa·s
293.16 K, 6263.9 kPa
  mass density: 9.9737 ± 0.022 kg/m3 and 9.9745 ± 0.022 kg/m3
  viscosity: 0.01956 ± 0.00012 mPa·s
293.16 K, 6273.2 kPa
  mass density: 9.9551 ± 0.022 kg/m3
  viscosity: 0.01957 ± 0.00012 mPa·s
293.16 K, 7587 kPa
  mass density: 11.953 ± 0.027 kg/m3
  viscosity: 0.01957 ± 0.00012 mPa·s
293.16 K, 14320 kPa
  mass density: 21.907 ± 0.049 kg/m3
  viscosity: 0.01959 ± 0.00012 mPa·s
293.16 K, 22974 kPa
  mass density: 33.812 ± 0.074 kg/m3
  viscosity: 0.01968 ± 0.00012 mPa·s
293.16 K, 25225 kPa
  mass density: 36.795 ± 0.081 kg/m3
  viscosity: 0.01971 ± 0.00012 mPa·s
293.16 K, 30149 kPa
  mass density: 43.152 ± 0.095 kg/m3
  viscosity: 0.0198 ± 0.00012 mPa·s
293.16 K, 30150 kPa
  mass density: 43.152 ± 0.095 kg/m3
  viscosity: 0.0198 ± 0.00012 mPa·s
293.17 K, 3742.6 kPa
  mass density: 5.9981 ± 0.014 kg/m3
  viscosity: 0.01958 ± 0.00012 mPa·s
293.17 K, 6273.4 kPa
  mass density: 9.9566 ± 0.022 kg/m3
  viscosity: 0.01957 ± 0.00012 mPa·s
293.17 K, 6273.7 kPa
  mass density: 9.9551 ± 0.022 kg/m3
  viscosity: 0.01957 ± 0.00012 mPa·s
293.17 K, 7587.3 kPa
  mass density: 11.953 ± 0.027 kg/m3
  viscosity: 0.01957 ± 0.00012 mPa·s
293.17 K, 8869.8 kPa
  mass density: 13.892 ± 0.031 kg/m3
  viscosity: 0.01957 ± 0.00012 mPa·s
293.17 K, 10198 kPa
  mass density: 15.951 ± 0.036 kg/m3 and 15.945 ± 0.036 kg/m3
  viscosity: 0.01955 ± 0.00012 mPa·s
293.17 K, 12237 kPa
  mass density: 18.892 ± 0.042 kg/m3
  viscosity: 0.01958 ± 0.00012 mPa·s
293.17 K, 18562 kPa
  mass density: 27.894 ± 0.062 kg/m3
  viscosity: 0.01962 ± 0.00012 mPa·s
293.18 K, 2466.6 kPa
  mass density: 3.9663 ± 0.0083 kg/m3
  viscosity: 0.01959 ± 0.00012 mPa·s
293.18 K, 8870.2 kPa
  mass density: 13.894 ± 0.031 kg/m3
  viscosity: 0.01957 ± 0.00012 mPa·s
293.18 K, 10228 kPa
  mass density: 15.928 ± 0.036 kg/m3
  viscosity: 0.01958 ± 0.00012 mPa·s
293.18 K, 12237 kPa
  mass density: 18.892 ± 0.042 kg/m3
  viscosity: 0.01958 ± 0.00012 mPa·s
293.18 K, 16436 kPa
  mass density: 24.919 ± 0.055 kg/m3
  viscosity: 0.01961 ± 0.00012 mPa·s
293.18 K, 18563 kPa
  mass density: 27.897 ± 0.062 kg/m3
  viscosity: 0.01964 ± 0.00012 mPa·s
293.18 K, 22975 kPa
  mass density: 33.81 ± 0.074 kg/m3
  viscosity: 0.01968 ± 0.00012 mPa·s
293.19 K, 16436 kPa
  mass density: 24.919 ± 0.055 kg/m3
  viscosity: 0.01961 ± 0.00012 mPa·s
293.19 K, 18564 kPa
  mass density: 27.893 ± 0.061 kg/m3
  viscosity: 0.01963 ± 0.00012 mPa·s
293.2 K, 20756 kPa
  mass density: 30.909 ± 0.068 kg/m3
  viscosity: 0.01965 ± 0.00012 mPa·s
293.2 K, 20757 kPa
  mass density: 30.907 ± 0.068 kg/m3
  viscosity: 0.01966 ± 0.00012 mPa·s
293.21 K, 30174 kPa
  mass density: 43.24 ± 0.095 kg/m3
  viscosity: 0.0198 ± 0.00012 mPa·s
293.21 K, 30175 kPa
  mass density: 43.241 ± 0.095 kg/m3 and 43.243 ± 0.095 kg/m3
  viscosity: 0.01979 ± 0.00012 mPa·s
293.22 K, 30175 kPa
  mass density: 43.244 ± 0.095 kg/m3
  viscosity: 0.0198 ± 0.00012 mPa·s
293.24 K, 1220.6 kPa
  mass density: 1.9766 ± 0.005 kg/m3
  viscosity: 0.01959 ± 0.00012 mPa·s
293.25 K, 1220.7 kPa
  mass density: 1.978 ± 0.005 kg/m3
  viscosity: 0.0196 ± 0.00012 mPa·s
293.25 K, 1827.1 kPa
  mass density: 2.949 ± 0.0064 kg/m3
  viscosity: 0.01959 ± 0.00012 mPa·s
293.26 K, 613.3 kPa
  mass density: 0.99551 ± 0.003 kg/m3
  viscosity: 0.0196 ± 0.00012 mPa·s
293.26 K, 1827.3 kPa
  mass density: 2.9512 ± 0.007 kg/m3
  viscosity: 0.01959 ± 0.00012 mPa·s
293.27 K, 489.97 kPa
  mass density: 0.79365 ± 0.0028 kg/m3
  viscosity: 0.0196 ± 0.00012 mPa·s
293.27 K, 490.02 kPa
  mass density: 0.79727 ± 0.0028 kg/m3
  viscosity: 0.0196 ± 0.00012 mPa·s
293.27 K, 613.45 kPa
  mass density: 0.99623 ± 0.0032 kg/m3
  viscosity: 0.0196 ± 0.00012 mPa·s
293.28 K, 121.3 kPa
  mass density: 0.19968 ± 0.0024 kg/m3
  viscosity: 0.01954 ± 0.00012 mPa·s
293.28 K, 121.33 kPa
  mass density: 0.19895 ± 0.0024 kg/m3
  viscosity: 0.01955 ± 0.00012 mPa·s
293.28 K, 244.14 kPa
  mass density: 0.39719 ± 0.0024 kg/m3
  viscosity: 0.01958 ± 0.00012 mPa·s
293.28 K, 244.19 kPa
  mass density: 0.39791 ± 0.0024 kg/m3
  viscosity: 0.01958 ± 0.00012 mPa·s
293.28 K, 366.66 kPa
  mass density: 0.59687 ± 0.0026 kg/m3
  viscosity: 0.01959 ± 0.00012 mPa·s
293.28 K, 366.7 kPa
  mass density: 0.59542 ± 0.0026 kg/m3
  viscosity: 0.01959 ± 0.00012 mPa·s
